Laboratory results as given in US20250099534A1, “UBIQUITIN HIGH AFFINITY CYCLIC PEPTIDES AND METHODS OF USE THEREOF” (TECHNION RESEARCH & DEVELOPMENT FOUNDATION LIMITED, priority 2022, published 2025).
Like-named read-outs stand apart in the source and are kept apart here. Starred links: 1 amine or outer side, 2 acyl side, 3 side chain; linkers in the order of their positions; H or OH if unused. Positions of bridges follow the written chain, without caps; N, C: chain ends. Residues, ends and D or L forms follow the SMILES beside them. *: point of attachment. Fluorescein(5-Mal) = O=C1OC2(c3ccc(O)cc3Oc3cc(O)ccc32)c2ccc(N3C(=O)CC(*)C3=O)cc21; X2 = CN(C)c1ccc2c(c1)Oc1cc(N(C)C)ccc1C21OC(=O)c2cc(N3C(=O)CC(*)C3=O)ccc21; X1 = O=C(c1cccc(C[*:2])c1)[*:1]

Tests used:
[1] = Solubility in buffer (aq.) medium; assay type: physicochemical
U2OS cells [2] = experiment: Cell uptake studies by live-cell confocal microscopy; details: 2 μM
Experimental: (§1) Cells were seeded for 24 h on ibidi 8 well μ-slides treated with poly-L-lysine to reach ˜90% confluency. Cells were then washed three times with warm PBS followed by incubation for 1 h with warm serum-free medium (DMEM) containing peptides. Thereafter, cells were washed two times with warm PBS. Prior to imaging, cells were washed with an optical culture medium and stained with Hoechst (2 μg/ml). Live cell CLSM images were captured using Confocal Zeiss LSM 710 equipped with 40×NA 1.2 water immersion objective lens using a 1 AU pinhole settings. Different lasers were used for the different tags (Hoechst, TAMRA, FITC), and during analysis, the μ-slide was kept at 37° C. in a humidified chamber.

U2OS cells [3] = tested on: U2OS cells
Experimental: as §1

SMILES: CC[C@H](C)[C@@H]1NC(=O)[C@H](Cc2c[nH]c3ccccc23)NC(=O)[C@H]([C@@H](C)CC)NC(=O)[C@H](CC(C)C)NC(=O)[C@H](CS)NC(=O)c2cccc(c2)CSC[C@@H](C(=O)NCC(N)=O)NC(=O)[C@H](CC(C)C)NC(=O)[C@H]([C@@H](C)CC)NC(=O)[C@H](Cc2ccc(O)cc2)NC(=O)[C@@H]2CCCN2C(=O)[C@H](CC(N)=O)NC(=O)[C@H](CCCCN)NC(=O)[C@H](CO)NC(=O)[C@H](CO)NC(=O)CNC1=O [cyclic peptide 2] (CLIWIGSSKNPYILCG-NH2; linker N-15 via X1)
- aqueous solubility [1]: poor aqueous solubility

SMILES: CC[C@H](C)[C@@H]1NC(=O)[C@H](Cc2c[nH]c3ccccc23)NC(=O)[C@H]([C@@H](C)CC)NC(=O)[C@H](CC(C)C)NC(=O)[C@H](CS)NC(=O)c2cccc(c2)CSC[C@@H](C(=O)NCC(=O)N[C@@H](C)C(=O)N[C@@H](CSC2CC(=O)N(c3ccc4c(c3)C(=O)OC43c4ccc(N(C)C)cc4Oc4cc(N(C)C)ccc43)C2=O)C(N)=O)NC(=O)[C@H](CC(C)C)NC(=O)[C@H]([C@@H](C)CC)NC(=O)[C@H](Cc2ccc(O)cc2)NC(=O)[C@@H]2CCCN2C(=O)[C@H](CC(N)=O)NC(=O)[C@H](CCCCN)NC(=O)[C@H](CO)NC(=O)[C@H](CO)NC(=O)CNC1=O (stereo partly drawn) [cyclic peptide 26] (CLIWIGSSKNPYILCGAC(X2)-NH2; linker N-15 via X1)
- cell-permeability / delivery to live cells (U2OS cells [2]): efficient cell-permeability

SMILES: CC[C@H](C)[C@@H]1NC(=O)[C@H](Cc2c[nH]c3ccccc23)NC(=O)[C@H]([C@@H](C)CC)NC(=O)[C@H](CC(C)C)NC(=O)[C@H](CS)NC(=O)c2cccc(c2)CSC[C@@H](C(=O)NCC(=O)N[C@@H](C)C(=O)N[C@@H](CSC2CC(=O)N(c3ccc4c(c3)C(=O)OC43c4ccc(O)cc4Oc4cc(O)ccc43)C2=O)C(N)=O)NC(=O)[C@H](CC(C)C)NC(=O)[C@H]([C@@H](C)CC)NC(=O)[C@H](Cc2ccc(O)cc2)NC(=O)[C@@H]2CCCN2C(=O)[C@H](CC(N)=O)NC(=O)[C@H](CCCCN)NC(=O)[C@H](CO)NC(=O)[C@H](CO)NC(=O)CNC1=O (stereo partly drawn) [cyclic peptide 29] (CLIWIGSSKNPYILCGAC(Fluorescein(5-Mal))-NH2; linker N-15 via X1)
- cell-permeability / delivery to live cells (U2OS cells [3]): did not observe an efficient delivery
